These results are taken from patent US20160289186A1, “FLUOROMETHYL-SUBSTITUTED PYRROLE CA[…]” (Grunenthal GmbH, priority 2013, published 2016).

This test has as its target T1, Human CaV2.2 channels (Homo sapiens, UniProt Q00975).
T1 construct: expressed in transfected cells; host or cells: HEK293
The test is described as follows: Fluorescent (FLIPR) assay for CaV2.2 channels using potassium depolarization to induce channel opening. The class given is cell-based. The conditions noted are these: 3 μM compound; 30 mM KCl assay buffer (inactivated channel state); HEK293 cells stably expressing human CaV2.2; read-out: Activity Category: %-Inhib (CaV2.2) @3 μM @30 mM KCl. The source says: In the process, the Ca^2+ influx is quantified in the FLIPR assay with the aid of a Ca^2+-sensitive dye (type Fluo-4, Molecular Probes Europe BV, Leiden, the Netherlands) in a fluorescent imaging plate reader (FLIPR 3, Molecular Devices, Sunnyvale, USA), as described hereinafter.
Human CaV2.2 channels were stably expressed in HEK293 cells together with alpha2-delta and beta subunits of voltage gated calcium channels. In addition, an inwardly rectifying potassium channel (Kir2.3) was stably expressed in these cells to augment control of the cell membrane potential by the concentration of extracellular potassium ions. Raise of the extracellular potassium concentration leads to depolarization of the membrane potential and thus regulates the voltage dependent state of CaV2.2 channels. For preparation, cells were seeded in black poly-D-lysine coated 96-well plates (Becton Dickinson, Biocoat 4640) in 100 μL medium [500 mL DMEM/F-12 plus Glutamax (Invitrogen 31331-093) plus 5.5 mL MEM NEAA 100× (Invitrogen 11140-035) plus 50 mL FBS decomplemented (Invitrogen 10270-106) plus 200 μg/mL Geneticin (Invitrogen 10131-027) plus 50 μg/mL Hygromycin B (Invitrogen 10687-010) plus 2 μg/mL Blasticidin (anti-bl5b Invivo-Gen) plus 0.2 μg/mL Puromycin (A 11138-03)] at a cell density of 30.000 cells per well. Plates were incubated at 37° C. (5% CO2) for 20 to 23 h. On the day of experiment medium was discarded and cells were loaded with Fluo 4 by addition of 100 μL of basic assay buffer (10 mM HEPES, 1 mM KCl, 149 mM NaCl, 0.8 mM CaCl2, 1.7 mM MgCl2, 10 mM Glucose, 0.1% BSA. pH 7.4) containing 2 μM Fluo 4 (Molecular Probes; F-14201), 0.01% pluronic acid (Molecular Probes; P-6866) and 2.5 mM probenecid (Molecular Probes; P36400). Cells were incubated in the dark at 25° C. for 60 min. Then dye containing buffer was discarded and 100 μL basic (1 mM KCl) or alternative (30 mM KCl) assay buffer was added. The alternative assay buffer contained altered concentrations of KCl (30 mM) and NaCl (120 mM) and was used in order to promote the inactivated channel state. After that 25 μL of basic or alternative assay buffer with or without test compound were added and cells were incubated again in the dark at 25° C. for 15 min. Fluorescence intensity was measured on a FLIPR 3 instrument (Molecular Devices Corp., Sunnyvale, Calif.) with excitation at 480 nm and emission at 535 nm. After continuously reading fluorescence for 30 sec, 50 μL of basic assay buffer containing 210 mM KCl (NaCl omitted) were added for depolarization. Peak fluorescent signal intensity was determined and the amplitude of the peak signal, normalized to base line, was used to measure channel inhibition by test compounds.

T1 sequence (Q00975 whole entry): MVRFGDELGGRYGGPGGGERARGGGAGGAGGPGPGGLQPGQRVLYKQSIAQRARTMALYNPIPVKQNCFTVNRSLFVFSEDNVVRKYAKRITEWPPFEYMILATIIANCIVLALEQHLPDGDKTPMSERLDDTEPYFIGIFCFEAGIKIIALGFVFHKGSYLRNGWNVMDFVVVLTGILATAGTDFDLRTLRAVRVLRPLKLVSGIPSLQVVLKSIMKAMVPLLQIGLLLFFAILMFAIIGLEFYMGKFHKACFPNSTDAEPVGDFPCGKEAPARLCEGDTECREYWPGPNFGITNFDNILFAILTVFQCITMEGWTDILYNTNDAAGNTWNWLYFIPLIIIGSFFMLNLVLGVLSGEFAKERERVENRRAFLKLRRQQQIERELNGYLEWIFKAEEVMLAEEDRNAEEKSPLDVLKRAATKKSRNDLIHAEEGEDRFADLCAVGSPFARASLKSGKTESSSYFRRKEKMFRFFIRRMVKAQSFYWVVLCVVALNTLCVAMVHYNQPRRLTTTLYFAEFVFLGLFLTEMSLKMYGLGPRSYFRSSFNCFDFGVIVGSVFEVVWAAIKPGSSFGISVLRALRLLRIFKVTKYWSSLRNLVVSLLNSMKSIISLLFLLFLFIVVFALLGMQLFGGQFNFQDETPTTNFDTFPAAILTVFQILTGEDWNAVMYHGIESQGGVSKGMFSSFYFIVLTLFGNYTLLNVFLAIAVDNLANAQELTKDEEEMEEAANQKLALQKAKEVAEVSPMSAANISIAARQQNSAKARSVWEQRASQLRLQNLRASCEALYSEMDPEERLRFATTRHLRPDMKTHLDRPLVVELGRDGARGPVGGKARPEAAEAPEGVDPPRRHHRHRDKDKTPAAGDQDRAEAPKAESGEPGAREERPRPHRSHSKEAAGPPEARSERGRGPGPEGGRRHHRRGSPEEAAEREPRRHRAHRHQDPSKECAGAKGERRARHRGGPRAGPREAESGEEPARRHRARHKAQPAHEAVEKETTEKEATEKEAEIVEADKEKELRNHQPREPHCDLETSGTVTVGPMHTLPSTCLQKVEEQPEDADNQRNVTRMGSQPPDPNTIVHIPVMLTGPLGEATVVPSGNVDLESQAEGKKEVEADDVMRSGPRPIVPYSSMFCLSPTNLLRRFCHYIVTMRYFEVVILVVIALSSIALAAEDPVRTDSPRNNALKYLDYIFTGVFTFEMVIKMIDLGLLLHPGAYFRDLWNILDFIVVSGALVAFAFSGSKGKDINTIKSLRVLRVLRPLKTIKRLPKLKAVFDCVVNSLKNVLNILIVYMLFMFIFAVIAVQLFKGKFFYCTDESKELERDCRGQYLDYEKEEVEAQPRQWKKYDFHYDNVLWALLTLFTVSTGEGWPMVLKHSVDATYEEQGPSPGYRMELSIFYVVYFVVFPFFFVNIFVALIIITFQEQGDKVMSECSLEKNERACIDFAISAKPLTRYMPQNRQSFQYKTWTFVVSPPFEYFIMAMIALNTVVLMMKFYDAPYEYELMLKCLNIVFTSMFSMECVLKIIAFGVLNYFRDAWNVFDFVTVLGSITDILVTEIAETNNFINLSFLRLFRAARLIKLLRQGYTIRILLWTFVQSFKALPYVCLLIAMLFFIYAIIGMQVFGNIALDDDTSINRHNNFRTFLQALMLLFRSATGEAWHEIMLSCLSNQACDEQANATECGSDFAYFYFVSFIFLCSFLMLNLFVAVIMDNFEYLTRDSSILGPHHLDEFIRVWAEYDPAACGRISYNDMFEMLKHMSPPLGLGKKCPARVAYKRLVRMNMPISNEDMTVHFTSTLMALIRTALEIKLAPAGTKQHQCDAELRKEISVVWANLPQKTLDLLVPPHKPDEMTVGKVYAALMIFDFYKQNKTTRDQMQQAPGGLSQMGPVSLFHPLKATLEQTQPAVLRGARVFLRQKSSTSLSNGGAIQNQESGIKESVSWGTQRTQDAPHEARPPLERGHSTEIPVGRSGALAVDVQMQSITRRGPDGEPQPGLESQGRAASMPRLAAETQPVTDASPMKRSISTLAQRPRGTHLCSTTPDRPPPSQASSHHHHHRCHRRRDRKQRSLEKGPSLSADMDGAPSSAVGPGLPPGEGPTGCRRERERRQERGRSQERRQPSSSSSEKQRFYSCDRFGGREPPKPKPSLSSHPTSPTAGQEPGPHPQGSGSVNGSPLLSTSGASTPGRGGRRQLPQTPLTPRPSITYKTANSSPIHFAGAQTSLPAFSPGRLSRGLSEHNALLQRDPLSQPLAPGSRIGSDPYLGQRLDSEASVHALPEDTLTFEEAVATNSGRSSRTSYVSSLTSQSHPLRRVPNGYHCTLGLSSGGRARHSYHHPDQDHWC
T1 sequence (P54284 whole entry, further chain): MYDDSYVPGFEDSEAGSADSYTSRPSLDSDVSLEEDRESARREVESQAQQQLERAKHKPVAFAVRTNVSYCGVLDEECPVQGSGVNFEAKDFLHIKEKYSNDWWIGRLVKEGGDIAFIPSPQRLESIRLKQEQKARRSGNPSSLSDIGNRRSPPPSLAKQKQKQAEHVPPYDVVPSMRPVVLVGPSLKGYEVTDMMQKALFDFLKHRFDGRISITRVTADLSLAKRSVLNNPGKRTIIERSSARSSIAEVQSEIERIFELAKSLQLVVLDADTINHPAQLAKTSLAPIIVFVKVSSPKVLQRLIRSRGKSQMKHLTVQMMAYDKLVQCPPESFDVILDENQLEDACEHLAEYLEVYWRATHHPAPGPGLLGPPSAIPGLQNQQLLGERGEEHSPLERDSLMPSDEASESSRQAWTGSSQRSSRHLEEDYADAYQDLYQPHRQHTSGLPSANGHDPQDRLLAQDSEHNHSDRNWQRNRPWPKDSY
T1 sequence (P54289 25-1103, further chain): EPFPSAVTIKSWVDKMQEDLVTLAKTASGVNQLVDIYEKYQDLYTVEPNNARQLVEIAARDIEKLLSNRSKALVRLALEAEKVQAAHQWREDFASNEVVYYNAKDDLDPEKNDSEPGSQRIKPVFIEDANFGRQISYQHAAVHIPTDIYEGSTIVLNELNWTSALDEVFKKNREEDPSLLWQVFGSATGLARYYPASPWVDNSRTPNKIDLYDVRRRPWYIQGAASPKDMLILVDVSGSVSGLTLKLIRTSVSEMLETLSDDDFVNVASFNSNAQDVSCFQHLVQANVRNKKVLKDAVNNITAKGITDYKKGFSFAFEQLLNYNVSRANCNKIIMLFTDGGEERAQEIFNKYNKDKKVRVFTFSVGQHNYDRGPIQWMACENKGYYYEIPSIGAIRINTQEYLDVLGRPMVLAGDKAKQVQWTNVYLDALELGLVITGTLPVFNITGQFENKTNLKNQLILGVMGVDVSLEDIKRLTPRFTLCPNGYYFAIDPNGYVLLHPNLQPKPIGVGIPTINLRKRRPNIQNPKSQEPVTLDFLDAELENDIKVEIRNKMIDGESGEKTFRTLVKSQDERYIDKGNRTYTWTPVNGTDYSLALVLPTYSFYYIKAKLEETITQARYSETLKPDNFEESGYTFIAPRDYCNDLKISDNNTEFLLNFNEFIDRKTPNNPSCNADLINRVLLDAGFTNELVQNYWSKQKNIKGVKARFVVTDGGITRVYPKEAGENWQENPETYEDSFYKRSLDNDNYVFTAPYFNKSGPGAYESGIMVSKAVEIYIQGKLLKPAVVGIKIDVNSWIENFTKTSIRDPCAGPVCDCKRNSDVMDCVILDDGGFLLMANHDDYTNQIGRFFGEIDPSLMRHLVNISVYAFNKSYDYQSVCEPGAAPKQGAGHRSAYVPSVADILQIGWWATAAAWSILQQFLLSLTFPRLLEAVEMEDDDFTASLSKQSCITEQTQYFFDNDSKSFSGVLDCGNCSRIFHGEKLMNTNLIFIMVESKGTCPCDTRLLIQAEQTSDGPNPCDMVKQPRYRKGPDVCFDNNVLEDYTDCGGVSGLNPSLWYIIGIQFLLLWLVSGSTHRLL

With `Cc1c(-c2ccc(Cl)cc2)c(C(=O)N2CCOC(C)(C)C2)n(CC(C)C)c1C(F)(F)F` [Example 064, [3-(4-Chlorophenyl)-4-methyl-1-(2-methyl-propyl)-5-(trifluoromethyl)-1H-pyrrol-2-yl]-(2,2-dimethyl-morpholin-4-yl)-methanone], the inhibition at 3 µM was in the range of 75 to 95%. Turning to `CN(C(=O)c1c(-c2ccc(Cl)cc2)cc(C(F)(F)F)n1C1CC1)C1CCOCC1` [Example 015, 3-(4-Chlorophenyl)-1-cyclopropyl-N-methyl-N-tetrahydro-pyran-4-yl-5-(trifluoromethyl)-1H-pyrrole-2-carboxylic acid amide], the inhibition at 3 µM was in the range of 75 to 95%. For `Cc1c(-c2ccc(Cl)cn2)c(C(=O)N(C)C2CCNCC2(C)C)n(C(C)C)c1C(F)(F)F` (centres unmarked) [Example 134, 3-(5-Chloro-pyridin-2-yl)-N-(3,3-dimethyl-piperidin-4-yl)-1-isopropyl-N,4-dimethyl-5-(trifluoromethyl)-1H-pyrrole-2-carboxylic acid amide], the inhibition at 3 µM lay in the range of 40 to 75%. The same measure for `Cc1c(-c2ccc(Cl)cc2)c(C(=O)N2CCOCC2)n(CC2CCOCC2)c1C(F)(F)F` [Example 097, [3-(4-Chlorophenyl)-4-methyl-1-(tetrahydro-pyran-4-yl-methyl)-5-(trifluoromethyl)-1H-pyrrol-2-yl]-morpholin-4-yl-methanone]: over 95%. In the case of `Cc1cnc(CN(C)C(=O)c2c(-c3ccc(Cl)cc3)c(C)c(C(F)(F)F)n2CC(C)C)cn1` [Example 059, 3-(4-Chlorophenyl)-N,4-dimethyl-1-(2-methyl-propyl)-N-[(5-methyl-pyrazin-2-yl)-methyl]-5-(trifluoromethyl)-1H-pyrrole-2-carboxylic acid amide], the inhibition at 3 µM was over 95%. With `Cc1noc(C2CCN(C(=O)c3c(-c4ccc(Cl)cc4)c(C)c(C(F)(F)F)n3CC(C)C)CC2)n1` [Example 062, [3-(4-Chlorophenyl)-4-methyl-1-(2-methyl-propyl)-5-(trifluoromethyl)-1H-pyrrol-2-yl]-[4-(3-methyl-[1,2,4]oxadiazol-5-yl)-piperidin-1-yl]-methanone], the inhibition at 3 µM fell in the range of 75 to 95%. The same measure for `Cc1c(-c2ccc(Cl)cc2)c(C(=O)N(C)CC(C)(C)C(N)=O)n(C(C)C)c1C(F)(F)F` [Example 105, N-(2-Carbamoyl-2-methyl-propyl)-3-(4-chlorophenyl)-1-isopropyl-N,4-dimethyl-5-(trifluoromethyl)-1H-pyrrole-2-carboxylic acid amide]: 75 to 95%; for `CN(CC(C)(C)C)C(=O)c1c(-c2ccc(Cl)cc2)cc(C(F)(F)F)n1C1CC1` [Example 035, 3-(4-Chlorophenyl)-1-cyclopropyl-N-(2,2-dimethyl-propyl)-N-methyl-5-(trifluoromethyl)-1H-pyrrole-2-carboxylic acid amide]: 40 to 75%; for `Cc1c(-c2ccc(Cl)cc2)c(C(=O)N(C)CC(C)(C)O)n(C2CC2)c1C(F)(F)F` [Example 018, 3-(4-Chlorophenyl)-1-cyclopropyl-N-(2-hydroxy-2-methyl-propyl)-N,4-dimethyl-5-(trifluoromethyl)-1H-pyrrole-2-carboxylic acid amide]: 75 to 95%. With `Cc1c(-c2ccc(Cl)cc2)c(C(=O)N(Cc2ccccc2)CC(C)(C)C)n(C)c1C(F)(F)F` [Example 003, N-Benzyl-3-(4-chlorophenyl)-N-(2,2-dimethyl-propyl)-1,4-dimethyl-5-(trifluoromethyl)-1H-pyrrole-2-carboxylic acid amide], the inhibition at 3 µM fell in the range of 40 to 75%. The same measure for `COc1ccc(CN(C)C(=O)c2c(-c3ccc(Cl)cc3)c(C)c(C(F)(F)F)n2C2CC2)cc1` [Example 010, 3-(4-Chlorophenyl)-1-cyclopropyl-N-[(4-methoxyphenyl)-methyl]-N,4-dimethyl-5-(trifluoromethyl)-1H-pyrrole-2-carboxylic acid amide]: 75 to 95%.
